In general, TGI refers to how far tumour growth fell short of that in controls. A higher TGI goes with a stronger effect on the tumour.

“Also recorded” adds a separate entry of the source. Some results are limits rather than exact numbers.

The text below walks through data of patent publication US20250195520A1, “COMBINATION THERAPY USING A PTPN11 INHIBITOR AND AN EGFR INHIBITOR” (NAVIRE PHARMA, INC., priority 2021, published 2025).

Data set [1] has as its system MPAS-plus signature (MAPK pathway) in HCC827-ER1 tumors. The data set can be described thus: RNA sequencing (QuantSeq), MPAS-plus signature in HCC827-ER1 xenograft tumors. It is filed as in vivo, mouse. Particulars: for effect on MPAS-plus signature: across timepoints. On the procedure:
(§1) In vivo modeling, treatment and data analysis. […] Dosing started ˜3 weeks after the subcutaneous implantation of the tumor cells. Dosing volume was 5 mL/kg for each compound, and was adjusted based on individual mouse weight. Dosing and sample harvesting followed the schedule below. There was a 6-hour interval between the morning dose and the afternoon dose, and tumor/plasma samples were harvested at three timepoints during the 24-hour dosing cycle.

The nature of data set [2]: Body weight in the HCC827-ER1 xenograft study. Conditions: Day 15. On the procedure: In vivo modeling, treatment and data analysis. […] Dosing started ˜3 weeks post the subcutaneous implantation of the tumor cells. Dosing volume was 5 mL/kg for each compound, and was adjusted based on individual mouse weight from the daily measurements. Tumor volume was measured twice a week.
(§2) Data were analyzed using Microsoft Excel and GraphPad Prism 8.0. Day 0 was the day before treatment started. Body weight change was calculated based on the following formulas.
BWi and BW0 are the body weight of an individual mouse on measurement day I and on day 0, respectively.

For data set [3], the system named is HCC827 subcutaneous tumors. The data set can be described thus: HCC827 subcutaneous xenograft, tumor volume. The data set is classed as in vivo, mouse. On the procedure: (§3) Cell lines. The HCC827 cell line was purchased from ATCC. […] The cells were cultured in RPMI-1640 medium (Sigma #RO883)+10% FBS (Sigma #F7524)+2 mM L-glutamine (Sigma #59202C) in 37° C. tissue culture incubator with 5% CO2.
(§4) Test animals. Female athymic nude mice (Envigo UK, Hsd: Athymic Nude-Foxn1nu) were utilized in this experiment. Animals were between 5 and 6 weeks of age at time of xenograft implantation. Animal welfare complies with the UK Animals Scientific Procedures Act 1986 (ASPA) in line with Directive 2010/63/EU of the European Parliament and the Council of 22 Sep. 2010 on the protection of animals used for scientific purposes. All experimental data management and reporting procedures were in strict accordance with applicable Crown Bioscience UK Guidelines and Standard Operating Procedures.
(§5) In vivo modeling, treatment and data analysis. For xenograft studies with the HCC827 and HCC827-ER1 cells, 5 million cells in 200 μL Matrigel (Corning #354234) were injected subcutaneously into the left flank of 5˜6 weeks old female athymic nude mice (Envigo UK). […] Dosing started ˜3 weeks post the subcutaneous implantation of the tumor cells. Dosing volume was 5 mL/kg for each compound, and was adjusted based on individual mouse weight from the daily measurements. Tumor volume was measured twice a week.
as §2

For data set [4], the system named is HCC827-ER1 subcutaneous tumors. The data set can be described thus: HCC827-ER1 subcutaneous xenograft, tumor volume. The data set is classed as in vivo, mouse. Particulars: for Number of regressions: regressions/animals remaining. On the procedure: as §3, §4, §5, §2
Data set [5] has as its system DUSP6 mRNA (MAPK pathway signaling) in HCC4006-OsiR cells. Description: In vitro pharmacodynamic assay, Taqman qRT-PCR of DUSP6 in HCC4006-OsiR cells. It is filed as cell-based, human. Particulars: osimertinib 100 nM, formula (10b) 3 μM, 4-hour, 48-hour, 7-day treatment.
Experimental: In vitro pharmacodynamic assay—Taqman qRT-PCR assay. The HCC4006-OsiR cells were plated in 6-well plates (Corning #353046) in 2 mL media and allowed to adhere overnight. […] Four hours later, 4-hour samples were harvested by removing media and lysing cells in each well with 350 μL RLT lysis buffer (Qiagen #79216) with 1% 2-mercaptoethanol. Samples were processed either right way or stored at −20° C. until further analysis. On day 3 and day 8, 48-hour samples and 7-day samples were harvested in the same way. Cells harvested at these two timepoints were switched to fresh media containing compounds 24 hours before sample harvesting.
RNA was extracted from lysates using RNeasy mini RNA isolation kit (Qiagen #74106). Isolated RNA was quantified using Nanodrop 8000 (Thermo Fisher). cDNA was synthesized using high capacity cDNA reverse transcription kit (Thermo Fisher #4368813) with 1 μg total RNA per reaction on a BioRad Tetrad2 thermal cycler (25° C. for 10 min, 37° C. for 120 min, 85° C. for 5 min then hold at 4° C.). The cDNA was further diluted 1:10 using ddH2O. Quantitative real-time PCR was conducted using the following Taqman probes and Taqman universal master mix II without UNG (Thermo Fisher #4440040) on QuantStudio 6 in 384-well format (Thermo Fisher), following vendor's protocols. Each well contains a target probe of interest conjugated to FAM dye (DUSP6, Thermo Fisher Assay ID Hs01044001_m1), and an endogenous control conjugated to VIC dye (human RPLPO, Thermo Fisher #4326314E). Each cDNA was run in three technical replicates.
The ΔΔCt method was used to analyze the qRT-PCR data. […] To calculate fold change, the relative mRNA levels of each sample were normalized to that in DMSO treated samples (fold change for DMSO treated samples was set at “1”). Calculations were done in Microsoft Excel and the graphs were generated in GraphPad Prism 8.0.
Data set [6] in a line: Plasma exposure by LC-MS/MS in the HCC827 xenograft study. Conditions: for Formula (10b) Plasma concentration: 6-8 hours post the final dose of formula (10b) 100 mg/kg QD, mean ± SD. The source says:
Blood collection for pharmacokinetic analysis. Blood from live animals for pharmacokinetic (PK) analyses was obtained via the lateral saphenous vein. The mouse was placed in a restraint tube and the hind leg immobilized in the extended position. Resting the foot of the animal on a solid surface, a sterile 25g needle (BD Microlance 3) was inserted into the saphenous vein on the top of the foot. The needle was removed and the blood collected using an EDTA coated capillary blood tube (Microvette CB 300 K2E) by capillary action to a volume of 100 μL. The tube was inverted several times to distribute the EDTA evenly and then centrifuged at 13,000 rpm, 4° C. (VWR Micro Star 17R) for 5 minutes to generate plasma. The supernatant (plasma) was carefully transferred to a 1.5 mL tube and stored at −80° C.
For each analysis, 25 μL of plasma sample was precipitated with 200 μL of acetonitrile containing imipramine (70 ng/mL) as an internal standard.
(§6) The detection conditions of the mass spectrometer were as follows: capillary voltage, 3 kv; cone voltage, 50 ev; collision energy, 25 ev; source temperature, 150° C.; desolvation temperature, 400° C.; desolvation gas flow, 1000 L/hr; cone gas glow, 0.15 mL/min. […] The injection volume was 5 μL. The LC mobile phase A was 0.1% acetic acidwater and B was 0.1% acetic acid-acetonitrile. […] The column temperature was 40° C. […] All data were processed using the MAssLynx v. 4.0 software.

A short description of data set [7]: Plasma concentration by LC-MS/MS in mice bearing HCC827-ER1 tumors (PK/PD study). On the procedure: as §1
Blood collection for pharmacokinetic analysis. Blood from live animals for pharmacokinetic (PK) analyses was obtained via the lateral saphenous vein. The mouse was placed in a restraint tube and the hind leg immobilized in the extended position. Resting the foot of the animal on a solid surface, a sterile 25g needle (BD Microlance 3) was inserted into the saphenous vein on the top of the foot. The needle was removed and the blood collected using an EDTA coated capillary blood tube (Microvette CB 300 K2E) by capillary action to a volume of 100 μL.
The tube was inverted several times to distribute the EDTA evenly and then centrifuged at 13,000 rpm, 4° C. (VWR Micro Star 17R) for 5 minutes to generate plasma. The supernatant (plasma) was carefully transferred to a 1.5 mL tube and stored at −80° C.
as §6

The mark [8] stands for this setting: HCC827 xenograft, formula (10b) 100 mg/kg QD, osimertinib 5 mg/kg QD, PO, 21 days.

Consider `Cc1c(N2CCC3(CC2)CO[C@@H](C)[C@H]3N)nc(C)n(-c2cccc(Cl)c2Cl)c1=O` (atropisomer, axis not shown; (Ra)) [Formula (10b), 6-((3S,4S)-4-amino-3-methyl-2-oxa-8-azaspiro[4.5]decan-8-yl)-3-(Ra)-(2,3-dichlorophenyl)-2,5-dimethylpyrimidin-4 (3H)-one], for which the “mRNA levels of the MPAS-plus genes” value in data set [1] (6-hour and 8-hour after formula (10b) administration) is “potently suppressed the mRNA levels of the MPAS-plus genes”. In addition, the “effect on MPAS-plus signature” value in data set [1] is reported as “suppresses the MPAS-plus signature”. The “Mean body weight change” value in data set [2] is “+6.3%”. Besides, the “tumor growth (tumor volume)” value is reported as “suppresses the growth of the HCC827 subcutaneous tumors; also recorded: tumor stasis” in data set [3] (setting [8]) and “suppresses the growth of the HCC827-ER1 tumors; also recorded: tumor stasis” in data set [4] (HCC827-ER1 xenograft, formula (10b) 100 mg/kg QD, osimertinib 5 mg/kg QD, PO, 21 days). This molecule also registered a tumour growth inhibition (TGI) in data set [4] (Day 15, HCC827-ER1 xenograft, formula (10b) 100 mg/kg QD, osimertinib 5 mg/kg QD) of 84%. Moreover, in data set [4] (Day 15, HCC827-ER1 xenograft), the Number of regressions is 0/4. In addition, in data set [5], the “DUSP6 mRNA levels” value is given as “reduces the transcript levels of MAPK pathway signature gene DUSP6; also recorded: potently suppressed DUSP6 mRNA levels at all three timepoints tested”. Also, the “Formula (10b) Plasma concentration” value in data set [6] (HCC827 xenograft model) was 14.1 ± 5.6 µM; in data set [6] (HCC827 xenograft model, listed as formula (10b)), 14.1 µM; in data set [7] (6 hours and 8 hours after dosing, 100 mg/kg, monotherapy and in combination with osimertinib), 30 to 50 µM. Besides, the “10(b) plasma concentration” value in data set [7] (24 hr post (10b) (18 hr post osimertinib), formula (10b) 100 mg/kg PO, mean ± SD) worked out at 1.34 ± 0.24 µM. This molecule also had a concentration at 6 h in data set [7] (female, athymic nude, mouse, plasma, oral, 100 mg/kg, 10(b) plasma concentration, 6 hr post (10b) (24 hr post osimertinib), formula (10b) 100 mg/kg PO, mean ± SD) of 47400 ± 5200 nM. In data set [7] (female, athymic nude, mouse, plasma, oral, 100 mg/kg, 10(b) plasma concentration, 8 hr post (10b) (2 hr post osimertinib), formula (10b) 100 mg/kg PO, mean ± SD), this molecule displayed a concentration at 8 h of 35800 ± 9100 nM. The concentration at 24 h in data set [7] (female, athymic nude, mouse, plasma, oral, 100 mg/kg, 10(b) plasma concentration, 24 hr post (10b) (18 hr post osimertinib), formula (10b) 100 mg/kg PO, mean ± SD) was ~1000 nM.

Regarding `C=CC(=O)Nc1cc(Nc2nccc(-c3cn(C)c4ccccc34)n2)c(OC)cc1N(C)CCN(C)C` [Osimertinib], the “effect on MPAS-plus signature” value in data set [1] was “little effect on the MPAS-plus signature”. Also, the “Mean body weight change” value in data set [2] is “+1.0%”. Also, the “tumor growth (tumor volume)” value in data set [3] (setting [8]) is given as “tumor stasis”; in data set [3] (mouse, in vivo) it was “robust tumor regression”; in data set [4] (mouse, in vivo) it was “continued to grow during the treatment period”. Further, the Number of regressions in data set [4] (Day 15, HCC827-ER1 xenograft) was 0/4. For the same molecule, the TGI in data set [4] (mouse, in vivo) was 64%. The “DUSP6 mRNA levels” value in data set [5] is on record as “did not suppress DUSP6 mRNA levels”. Moreover, the “osimertinib plasma concentration” value is given as “BQL” in data set [6] (24 hours post the final dose of osimertinib 5 mg/kg QD, HCC827 xenograft model, quantitation limit 2 nM); 681 ± 277 nM in data set [7] (2 hr post osimertinib (8 hr post (10b)), osimertinib 5 mg/kg PO, mean ± SD); “low nanomolar range” in data set [7] (18 hr post osimertinib (24 hr post (10b)), osimertinib 5 mg/kg PO, mean ± SD); “BQL” in data set [7] (24 hr post osimertinib (6 hr post (10b)), osimertinib 5 mg/kg PO, quantitation limit 2 nM). Also, the concentration at 24 h in data set [6] (athymic nude, mouse, in vivo, 5 mg/kg) was < 2 nM; in data set [7] (female, athymic nude, mouse, in vivo, 5 mg/kg, osimertinib plasma concentration, 24 hr post osimertinib (6 hr post (10b)), osimertinib 5 mg/kg PO, quantitation limit 2 nM) it was < 2 nM. Further, the concentration at 2 h in data set [7] (female, athymic nude, mouse, in vivo, 5 mg/kg, osimertinib plasma concentration, 2 hr post osimertinib (8 hr post (10b)), osimertinib 5 mg/kg PO, mean ± SD) was ~700 nM. The molecule also returned a concentration at 18 h in data set [7] (female, athymic nude, mouse, in vivo, 5 mg/kg, osimertinib plasma concentration, 18 hr post osimertinib (24 hr post (10b)), osimertinib 5 mg/kg PO, mean ± SD) of 2.1 ± 0.14 nM.
